Data on 27 compounds can be found in PubChem BioAssay AID330 (DTP/NCI, 2004).

The assay has as its system P388 leukemia ip, CD2F1 mice, survival T/C. The assay is described as follows: NCI In Vivo Anticancer Drug Screen. Data for tumor model P388 Leukemia (intraperitoneal) in CD2F1 (CDF1) mice. The conditions noted are these: endpoint: median survival time, higher = longer survival. Summed up: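 Mice carrying the transplanted tumor received test compound or vehicle. Survival was recorded in each group, and the value is the treated-group measurement divided by that of the vehicle-treated control group.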

The mark [1] stands for this setting: dose: 50.0 mg/kg/injection, schedule: Q01DX009 (ip), vehicle: saline with Tween-80.
Setting [2] is: dose: 100.0 mg/kg/injection, schedule: Q01DX009 (ip), vehicle: saline with Tween-80.
[3] abbreviates: dose: 200.0 mg/kg/injection, schedule: Q01DX009 (ip), vehicle: saline with Tween-80.
[4] abbreviates: dose: 25.0 mg/kg/injection, schedule: Q01DX009 (ip), vehicle: saline with Tween-80.
Setting [5] is: dose: 100.0 mg/kg/injection, schedule: Q01DX001 (ip), vehicle: saline with Tween-80.
The mark [6] stands for this setting: dose: 200.0 mg/kg/injection, schedule: Q01DX001 (ip), vehicle: saline with Tween-80.
[7] abbreviates: dose: 50.0 mg/kg/injection, schedule: Q01DX005 (ip), vehicle: saline with Tween-80.
Setting [8] is: dose: 100.0 mg/kg/injection, schedule: Q01DX005 (ip), vehicle: saline with Tween-80.
Where [9] appears, read: dose: 200.0 mg/kg/injection, schedule: Q01DX005 (ip), vehicle: saline with Tween-80.
[10] abbreviates: dose: 400.0 mg/kg/injection, schedule: Q01DX009 (ip), vehicle: saline with Tween-80.
[11] abbreviates: dose: 400.0 mg/kg/injection, schedule: Q01DX001 (ip), vehicle: saline with Tween-80.
Where [12] appears, read: dose: 100.0 mg/kg/injection, schedule: Q04DX002 (ip), vehicle: saline with Tween-80.

Each structure is given as a SMILES string. Values joined by “and” are separate entries in the source; they are usually repeats but may differ in a detail not shown here. Equal values may be shown once. Inconclusive results and toxic doses are left out.

For `COC1/C=C/OC2(C)Oc3c(C)c(O)c4c(O)c(c(C5SCCS5)c(O)c4c3C2=O)NC(=O)/C(C)=C\C=C\C(C)C(O)C(C)C(O)C(C)C(O)C1C` (configuration not stated), the T/C under setting [1] is 97 % of control, the T/C under setting [2] was 102 % of control and the T/C under setting [3] was 96 % of control.
On to `C/C(=N\N)c1cnc(N)nc1C`, for which the T/C is 101 % of control (dose: 60.0 mg/kg/injection, schedule: Q01DX005 (ip), vehicle: saline); 107 % of control (dose: 120.0 mg/kg/injection, schedule: Q01DX005 (ip), vehicle: saline); 100 % of control (dose: 240.0 mg/kg/injection, schedule: Q01DX005 (ip), vehicle: saline).
For `COC(=O)/C=C1\C(=O)OCC1(C)C`, the T/C (dose: 100.0 mg/kg/injection, schedule: Q04DX003 (ip), vehicle: saline) was 100 % of control; the T/C (dose: 200.0 mg/kg/injection, schedule: Q04DX003 (ip), vehicle: saline) was 104 % of control; the T/C (dose: 400.0 mg/kg/injection, schedule: Q04DX003 (ip), vehicle: saline) was 103 % of control.
On to `CCOC(=O)C(Cc1ccc(O)cc1)NCc1ccc(N(CCCl)CCCl)cc1` (configuration not stated), for which the T/C is, setting by setting: (dose: 12.5 mg/kg/injection, schedule: Q01DX009 (ip), vehicle: saline with Tween-80) 109 % of control; under setting [4], 113 % of control; under setting [2], 160 % of control.
For the compound `O=C1Nc2ccccc2/C1=N/N=c1\scc(-c2ccc(Br)cc2)n1-c1ccc(Cl)cc1`, the T/C is 93 % of control (dose: 50.0 mg/kg/injection, schedule: Q01DX001 (ip), vehicle: saline with Tween-80); 99 % of control under setting [5]; 89 % of control and 94 % of control under setting [6].
In the case of `O=Nc1c(NO)n(-c2ccccc2)c(=S)n1-c1ccccc1`, the T/C under setting [7] was 95 % of control, the T/C under setting [8] was 109 % of control and the T/C under setting [9] was 104 % of control.
Consider `COC(=O)C1C2C(C)CC3(CC12C)OCCO3` (configuration not stated), for which the T/C under setting [2] was 91 % of control, the T/C under setting [3] is 91 % of control and the T/C under setting [10] is 91 % of control.
Consider `CC1SC(C)SC(C(C)(C)O)S1` (configuration not stated), for which the T/C was 100 % of control under setting [7], 100 % of control under setting [8] and 100 % of control under setting [9].
For the compound `Oc1ccccc1N=Cc1ccc2c(c1)OCO2`, the T/C (dose: 25.0 mg/kg/injection, schedule: Q01DX005 (ip), vehicle: saline with Tween-80) is 103 % of control; the T/C under setting [7] was 110 % of control; the T/C under setting [8] was 104 % of control; the T/C under setting [9] was 110 % of control.
In the case of `C=C(C)CC1CN2CCc3cc(OC)c(OC)cc3C2CC1=O` (configuration not stated), the T/C was 106 % of control (dose: 50.0 mg/kg/injection, schedule: Q01DX009 (ip), vehicle: Klucel (hydroxypropylcellulose) (HPC)); 102 % of control under setting [1]; 104 % of control (dose: 100.0 mg/kg/injection, schedule: Q01DX009 (ip), vehicle: Klucel (hydroxypropylcellulose) (HPC)); 116 % of control under setting [2].
Take `COc1ccc(-c2ccc(Cc3ccc(-c4ccc(OC)cc4)o3)o2)cc1`: the T/C runs as follows: under setting [7], 94 % of control; under setting [8], 91 % of control; under setting [9], 91 % of control.
As for `O=C(O)CSCc1nc2ccccc2[nH]1`, the T/C is 95 % of control under setting [5], 90 % of control under setting [6] and 100 % of control under setting [11].
With `O=C(O)c1cc2sccc2c(=O)[nH]1`, the T/C is 102 % of control (dose: 100.0 mg/kg/injection, schedule: Q04DX003 (ip), vehicle: Klucel (hydroxypropylcellulose) (HPC)); 113 % of control (dose: 200.0 mg/kg/injection, schedule: Q04DX003 (ip), vehicle: Klucel (hydroxypropylcellulose) (HPC)); 103 % of control (dose: 400.0 mg/kg/injection, schedule: Q04DX003 (ip), vehicle: Klucel (hydroxypropylcellulose) (HPC)).
As for `O=CNc1ccc(O)cc1`, the T/C under setting [2] is 100 % of control, the T/C under setting [3] was 109 % of control and the T/C under setting [10] was 118 % of control.
Take `Nc1nc(N)c2cc(Sc3ccc(Cl)cc3)ccc2n1`: the T/C by setting is: under setting [4], 118 % of control; under setting [3], 86 % of control.
`CCOC(=O)c1[nH]ncc1[N+](=O)[O-]`: the T/C by setting is: under setting [5], 103 % of control; under setting [6], 102 % of control; under setting [11], 102 % of control.
`CCCC1(CCC)NC(=O)N(CC(=O)OCC)C1=O`: the T/C is 105 % of control (dose: 100.0 mg/kg/injection, schedule: Q01DX001 (ip), vehicle: saline) and 110 % of control (dose: 200.0 mg/kg/injection, schedule: Q01DX001 (ip), vehicle: saline).
In the case of `CC(=O)Nc1ccc(/C=N/NC(=O)CC2CCCCC2)cc1`, the T/C is 96 % of control (dose: 60.0 mg/kg/injection, schedule: Q01DX005 (ip), vehicle: saline with Tween-80); 100 % of control (dose: 120.0 mg/kg/injection, schedule: Q01DX005 (ip), vehicle: saline with Tween-80); 91 % of control (dose: 240.0 mg/kg/injection, schedule: Q01DX005 (ip), vehicle: saline with Tween-80).
Take `O=C1c2c(O)cccc2C(C2OC(CO)C(O)C(O)C2O)c2cc(CO)cc(O)c21` (configuration not stated): the T/C (dose: 25.0 mg/kg/injection, schedule: Q01DX005 (ip), vehicle: Klucel (hydroxypropylcellulose) (HPC)) is 101 % of control; the T/C (dose: 50.0 mg/kg/injection, schedule: Q01DX001 (ip), vehicle: water) was 104 % of control; the T/C (dose: 50.0 mg/kg/injection, schedule: Q01DX005 (ip), vehicle: Klucel (hydroxypropylcellulose) (HPC)) was 104 % of control and 107 % of control; the T/C (dose: 100.0 mg/kg/injection, schedule: Q01DX001 (ip), vehicle: water) is 104 % of control; the T/C (dose: 100.0 mg/kg/injection, schedule: Q01DX005 (ip), vehicle: Klucel (hydroxypropylcellulose) (HPC)) is 117 % of control and 110 % of control; the T/C (dose: 200.0 mg/kg/injection, schedule: Q01DX001 (ip), vehicle: water) is 104 % of control.
Take `COc1cc(OC)c(NC(=S)Nc2sc3c(c2C#N)CCCC3)cc1Cl`: the T/C is 110 % of control (dose: 50.0 mg/kg/injection, schedule: Q01DX009 (ip), vehicle: gum acacia); 103 % of control (dose: 100.0 mg/kg/injection, schedule: Q01DX009 (ip), vehicle: gum acacia); 102 % of control (dose: 200.0 mg/kg/injection, schedule: Q01DX009 (ip), vehicle: gum acacia).
For the compound `COc1cc2c(C)nc3c4cc5c(cc4ccc3c2cc1OC)OCO5`, the T/C is 108 % of control (dose: 25.0 mg/kg/injection, schedule: Q01DX009 (ip), vehicle: water) and 95 % of control (dose: 50.0 mg/kg/injection, schedule: Q01DX009 (ip), vehicle: water).
Regarding `CSc1nccc(=O)n1-c1ccc(C)cc1`, the T/C under setting [12] is 102 % of control; the T/C (dose: 200.0 mg/kg/injection, schedule: Q04DX002 (ip), vehicle: saline with Tween-80) was 102 % of control; the T/C (dose: 400.0 mg/kg/injection, schedule: Q04DX002 (ip), vehicle: saline with Tween-80) was 98 % of control.
As to `CCCCCCC1C/C(=C/N(C)C)C(=O)O1` (configuration not stated), the T/C is 92 % of control (dose: 60.0 mg/kg/injection, schedule: Q01DX005 (ip), vehicle: Klucel (hydroxypropylcellulose) (HPC)); 104 % of control (dose: 120.0 mg/kg/injection, schedule: Q01DX005 (ip), vehicle: Klucel (hydroxypropylcellulose) (HPC)); 92 % of control (dose: 240.0 mg/kg/injection, schedule: Q01DX005 (ip), vehicle: Klucel (hydroxypropylcellulose) (HPC)).
Consider `CC/C(=N/OC)C(=O)OC`, for which the T/C is, setting by setting: under setting [7], 93 % of control; under setting [8], 99 % of control; under setting [9], 100 % of control.
Take `CN1CC[CH2][Sn]([Cl])([Cl])[CH2]CC1`: the T/C (dose: 3.75 mg/kg/injection, schedule: Q01DX005 (ip), vehicle: saline with Tween-80) was 114 % of control and the T/C (dose: 7.5 mg/kg/injection, schedule: Q01DX005 (ip), vehicle: saline with Tween-80) is 105 % of control.
As for `CC1C2OC(=O)C1(C)c1ccccc1C2=O` (configuration not stated), the T/C (dose: 12.5 mg/kg/injection, schedule: Q01DX001 (ip), vehicle: Klucel (hydroxypropylcellulose) (HPC)) is 109 % of control; the T/C (dose: 25.0 mg/kg/injection, schedule: Q01DX001 (ip), vehicle: Klucel (hydroxypropylcellulose) (HPC)) is 99 % of control; the T/C (dose: 50.0 mg/kg/injection, schedule: Q01DX001 (ip), vehicle: Klucel (hydroxypropylcellulose) (HPC)) is 103 % of control.
`CSC(/C=C1\C=CC=CN1Cc1ccccc1)=NC#N`: the T/C is 100 % of control (dose: 25.0 mg/kg/injection, schedule: Q04DX002 (ip), vehicle: saline with Tween-80); 92 % of control (dose: 50.0 mg/kg/injection, schedule: Q04DX002 (ip), vehicle: saline with Tween-80); 99 % of control under setting [12].
